Results taken from EP0094644A1, “Utilization of a cholecalciferol derivative” (F. HOFFMANN-LA ROCHE & CO. Aktiengesellschaft, priority 1982, dated 1983).

What was measured:
Format in all cases: in vivo
Weissen Leghorn-Küken [1] = assay: Intestinal calcium absorption in chicks (serum 45Ca); conditions: for Serum ^45Ca: serum 45 min after isotope
Excerpt: b) Intestinale Calcium-Absorption bei Küken
Weissen Leghorn-Küken wird während 21 Tagen unter UV-freier Bestrahlung eine Vitamin D-arme Diät gegeben. Eine Einzeldosis der Testverbindung, gelöst in Propylenglykol, wird den Tieren oral verabreicht. Danach werden zu verschiedenen Zeitpunkten 2 µCi ^45 Ca (Chlorid) oral verabreicht und die Serumradioaktivität 45 Minuten nach Verabreichung des Isotops gemessen. In jeder Versuchsperiode werden Kontrolltiere verwendet, denen nur das Vehikel verabreicht wird. In jeder Behandlungsgruppe und jeder Kontrollgruppe werden 10 oder 11 Küken verwendet.

Weissen Leghorn-Küken [2] = assay: Antirachitic activity in chicks (tibia ash weight); conditions: for Mittleres Tibiaaschengewicht: 21 days, vitamin D-deficient diet, vehicle control 120,7 ± 5,9
Excerpt: a) Antirachitische Aktivität
Weissen Leghorn-Küken wird unter UV-freier Beleuchtung eine Vitamin D-arme, 1% Calcium und 0,7% Phosphor enthaltende Diät gegeben. Die in Propylenglykol gelöste Testverbindung wird während 21 Tagen den am Anfang des Versuchs 1 oder 2 Tage alten Küken oral verabreicht. Kontrolltiere werden mit dem Vehikel behandelt. Die Küken werden am Tag nach dem letzten Behandlungstag seziert und das Tibiaaschengewicht wird ermittelt. Es werden 9 oder 10 Küken für jede Behandlungsgruppe und für die Kontrollgruppe verwendet. Die mittleren Tibiaaschengewichte ausgedrückt in mg sind in der nachfolgenden Tabelle I angegeben.

[3] = tested on: Männliche Charles River Ratten; assay: Prevention of EHDP-induced mineralisation block in rats (epiphyseal plate width); conditions: for Mittlere Breite der Epiphysenplatte: 10 days with EHDP 2 mg/Ratte s.c., EHDP alone 1182 ± 51, no EHDP 440 ± 2
Experimental: c) Verhütung der durch EHDP-induzierten Blockierung der Mineralisierung bei Ratten
Männliche Charles River Ratten werden 10 Tage mit Dinatrium-äthan-1-hydroxy-1,1-diphosphonat (EHDP) behandelt. Die Verbindung wird in destilliertem Wasser in einer Konzentration von 2 mg/0,2 ml/Ratte jeden Tag subcutan verabreicht. Die fluorierte Verbindung wird in Propylenglykol jeden Tag oral verabreicht. Am Tag nach der letzten Behandlung werden die Ratten seziert und deren Tibia durch Silberimprägnierung der Knochensalze behandelt. Die Breite der Epiphysenplatte wird mit einem Mikroskop gemessen. Zur Ermittlung der Aktivität wird die dosisabhängige Verengerung der durch EHDP-Induktion erweiterten Epiphysenplatte gemessen. In jeder Behandlungsgruppe werden 10 Ratten verwendet. Es werden auch positive (EHDP allein) und negative (Vehikel allein) Kontrollgruppen von 10 Ratten in jedem Versuch verwendet.

[4] = 100 ng single oral dose, 24 Std., vehicle 992 ± 81
[5] = 100 ng single oral dose, 48 Std., vehicle 769 ± 90

SMILES | Serum ^45Ca (Weissen Leghorn-Küken [1]; [4]) | Serum ^45Ca (Weissen Leghorn-Küken [1]; [5]) | Serum ^45Ca (Weissen Leghorn-Küken [1]; 200 ng single oral dose, 72 Std., vehicle 647 ± 69) | Serum ^45Ca (Weissen Leghorn-Küken [1]; 100 ng single oral dose, 72 Std., vehicle 647 ± 69) | Serum ^45Ca (Weissen Leghorn-Küken [1]; 100 ng single oral dose, 96 Std., vehicle 586 ± 70) | lang andauernde intestinale Calcium-Absorption (Weissen Leghorn-Küken [1]; duration after 100 ng Einzeldosis, oral) | Mittleres Tibiaaschengewicht (Weissen Leghorn-Küken [2]; 1 ng/Küken/Tag oral) | Mittleres Tibiaaschengewicht (Weissen Leghorn-Küken [2]; 3 ng/Küken/Tag oral) | Mittleres Tibiaaschengewicht (Weissen Leghorn-Küken [2]; 10 ng/Küken/Tag oral) | Mittleres Tibiaaschengewicht (Weissen Leghorn-Küken [2]; 30 ng/Küken/Tag oral) | antirachitische Aktivität (Weissen Leghorn-Küken [2]; summary in words of Tabelle I) | Mittlere Breite der Epiphysenplatte ([3]; 1 ng/Ratte/Tag oral) | Mittlere Breite der Epiphysenplatte ([3]; 3 ng/Ratte/Tag oral) | Mittlere Breite der Epiphysenplatte ([3]; 10 ng/Ratte/Tag oral) | Mittlere Breite der Epiphysenplatte ([3]; 30 ng/Ratte/Tag oral) | Calcifizierung der Tibiaepiphysenplatte ([3]; EHDP-blocked rats, summary in words of Tabelle III)
C=C1/C(=C\C=C2/CCC[C@]3(C)[C@@H]([C@H](C)CCCC(C)(C)O)CC[C@@H]23)C[C@@H](O)C[C@@H]1O [Verbindung A, 1a,25-Dihydroxycholecalciferol, reference compound] | 1800 ± 181 cpm/0,2 ml | 1006 ± 133 cpm/0,2 ml | 710 ± 62 cpm/0,2 ml | – | – | – | – | – | – | – | – | – | – | – | – | –
C=C1/C(=C\C=C2/CCC[C@]3(C)[C@@H]([C@H](C)CCC(F)(F)C(C)(C)O)CC[C@@H]23)C[C@@H](O)C[C@@H]1O [fluorierte Verbindung, 24,24-Difluor-la,25-dihydroxycholecalciferol] | 2064 ± 170 cpm/0,2 ml | 1539 ± 99 cpm/0,2 ml | – | 1164 ± 90 cpm/0,2 ml | 998 ± 61 cpm/0,2 ml | 96 Stunden | 111,5 ± 4,7 mg | 151,1 ± 8,2 mg | 227,1 ± 8,2 mg | 244,8 ± 7,4 mg | beträchtliche antirachitische Aktivität | 839 ± 18 Mikron | 674 ± 18 Mikron | 540 ± 16 Mikron | 412 ± 9 Mikron | die Calcifizierung der Tibiaepiphysenplatte bei EHDP-blockierten Ratten bewirkt
